The data set deals with HBV. As to conditions: ASO.

Values joined by “and” are separate entries in the source; they are usually repeats but may differ in a detail not shown here. Equal values may be shown once. HELM strings list units from the 5' end as sugar, base in round brackets, then linkage (d deoxyribose, r ribose, m 2'-O-methyl, p phosphodiester). Methylation of C is not given here. [moe] = 2'-O-(2-methoxyethyl) (MOE); [cEt] = constrained ethyl (cEt); [sp] = phosphorothioate linkage

Data on 27 substances can be found in the OligoGym collection.

Regarding “RNA1{[moe](A)[sp].[moe](A)[sp].[moe](G)[sp].[moe](A)[sp].[moe](T)[sp].[moe](G)[sp].d(A)[sp].d(G)[sp].d(G)[sp].d(C)[sp].d(A)[sp].d(T)[sp].d(A)[sp].d(G)[sp].d(C)[sp].[moe](A)[sp].[moe](G)}$$$$V2.0”, the target mRNA inhibition (HepG2, 0.07 µM) was 65% and 41%.
The same measure, in the same setting: the value for “RNA1{[moe](G)[sp].[moe](A)[sp].[moe](A)[sp].d(C)[sp].d(C)[sp].d(A)[sp].d(C)[sp].d(T)[sp].d(G)[sp].d(A)[sp].d(A)[sp].d(C)[sp].d(A)[sp].[cEt](A)[sp].[cEt](A)[sp].[cEt](T)}$$$$V2.0” was 30% and 48%.
On the same count and under the same terms, the same measure for “RNA1{[moe](A)[sp].[moe](G)[sp].[moe](T)[sp].[moe](T)[sp].d(C)[sp].d(C)[sp].d(G)[sp].d(C)[sp].d(A)[sp].d(G)[sp].d(T)[sp].d(A)[sp].d(T)[sp].[moe](G)[sp].[moe](G)[sp].[moe](A)[sp].[moe](T)}$$$$V2.0”: 43% and 52%; for “RNA1{[moe](C)[sp].[moe](C)[sp].[moe](A)[sp].d(A)[sp].d(T)[sp].d(T)[sp].d(T)[sp].d(A)[sp].d(T)[sp].d(G)[sp].d(C)[sp].d(C)[sp].[moe](T)[sp].[moe](A)[sp].[moe](C)[sp].[moe](A)[sp].[moe](G)}$$$$V2.0”: 53% and 32%.
For “RNA1{[moe](G)[sp].[moe](A)[sp].[moe](G)[sp].d(G)[sp].d(C)[sp].d(A)[sp].d(T)[sp].d(A)[sp].d(G)[sp].d(C)[sp].d(A)[sp].d(G)[sp].d(C)[sp].[moe](A)[sp].[moe](G)[sp].[moe](G)}$$$$V2.0”, the target mRNA inhibition runs as follows: (HepG2, 0.0092593 µM) 4%; (HepG2, 0.0277778 µM) 24%; (HepG2, 0.0833333 µM) 49%; (HepG2, 0.25 µM) 67%.
For the substance “RNA1{[moe](A)[sp].[moe](A)[sp].[moe](G)[sp].d(C)[sp].d(G)[sp].d(A)[sp].d(A)[sp].d(G)[sp].d(T)[sp].d(G)[sp].d(C)[sp].d(A)[sp].[moe](C)[sp].[moe](A)[sp].[moe](C)[sp].[moe](G)[sp].[moe](G)}$$$$V2.0”, the target mRNA inhibition (HepG2, 0.07 µM) was 81% and 73%.
Same read-out and setting: the same measure for “RNA1{[moe](A)[sp].[moe](T)[sp].[moe](G)[sp].[moe](A)[sp].[moe](G)[sp].[moe](G)[sp].d(C)[sp].d(A)[sp].d(T)[sp].d(A)[sp].d(G)[sp].d(C)[sp].d(A)[sp].d(G)[sp].d(C)[sp].[moe](A)[sp].[moe](G)}$$$$V2.0”: 55% and 51%.
The same measure, in the same setting: the value for “RNA1{[moe](T)[sp].[moe](G)[sp].[moe](A)[sp].[moe](A)[sp].[moe](G)[sp].[moe](C)[sp].d(G)[sp].d(A)[sp].d(A)[sp].d(G)[sp].d(T)[sp].d(G)[sp].d(C)[sp].d(A)[sp].d(C)[sp].[moe](A)[sp].[moe](C)}$$$$V2.0” was 84% and 64%.
Still for that read-out and setting: the same measure for “RNA1{[moe](G)[sp].[moe](C)[sp].[moe](A)[sp].[moe](G)[sp].[moe](A)[sp].[moe](G)[sp].d(G)[sp].d(T)[sp].d(G)[sp].d(A)[sp].d(A)[sp].d(G)[sp].d(C)[sp].d(G)[sp].d(A)[sp].[moe](A)[sp].[moe](G)}$$$$V2.0”: 65% and 68%.
As for “RNA1{[moe](G)[sp].[moe](T)[sp].[moe](G)[sp].d(A)[sp].d(A)[sp].d(G)[sp].d(C)[sp].d(G)[sp].d(A)[sp].d(A)[sp].d(G)[sp].d(T)[sp].d(G)[sp].[cEt](C)[sp].[cEt](A)[sp].[cEt](C)}$$$$V2.0”, the target mRNA inhibition reads like this: (HepG2, 0.0092593 µM) 0%; (HepG2, 0.0277778 µM) 32%; (HepG2, 0.07 µM) 74% and 84%; (HepG2, 0.0833333 µM) 68%; (HepG2, 0.25 µM) 86%.
Turning to “RNA1{[moe](A)[sp].[cEt](G)[sp].[cEt](G)[sp].d(C)[sp].d(A)[sp].d(C)[sp].d(A)[sp].d(G)[sp].d(C)[sp].d(T)[sp].d(T)[sp].d(G)[sp].d(G)[sp].[cEt](A)[sp].[cEt](G)[sp].[moe](G)}$$$$V2.0”, for the setting “HepG2, 0.07 µM”, the target mRNA inhibition is 12% and 37%.
Still for that read-out and setting: the value for “RNA1{[moe](C)[sp].[cEt](G)[sp].d(G)[sp].d(G)[sp].d(C)[sp].d(A)[sp].d(A)[sp].d(C)[sp].d(A)[sp].d(T)[sp].d(A)[sp].d(C)[sp].[cEt](C)[sp].[moe](T)[sp].[cEt](T)[sp].[moe](G)}$$$$V2.0” was 72% and 65%.
Turning to “RNA1{[moe](A)[sp].[cEt](A)[sp].[cEt](G)[sp].d(C)[sp].d(G)[sp].d(A)[sp].d(A)[sp].d(G)[sp].d(T)[sp].d(G)[sp].d(C)[sp].d(A)[sp].d(C)[sp].[cEt](A)[sp].[cEt](C)[sp].[moe](G)}$$$$V2.0”, the target mRNA inhibition (HepG2, 0.0092593 µM) turned out to be 28%; the target mRNA inhibition (HepG2, 0.0277778 µM) is 57%; the target mRNA inhibition (HepG2, 0.07 µM) is 80% and 85%; the target mRNA inhibition (HepG2, 0.0833333 µM) stood at 80%; the target mRNA inhibition (HepG2, 0.25 µM) was determined as 89%.
In the case of “RNA1{[moe](A)[sp].[moe](G)[sp].[moe](G)[sp].d(C)[sp].d(A)[sp].d(T)[sp].d(A)[sp].d(G)[sp].d(C)[sp].d(A)[sp].d(G)[sp].d(C)[sp].[moe](A)[sp].[moe](G)[sp].[moe](G)[sp].[moe](A)}$$$$V2.0”, the target mRNA inhibition (HepG2, 0.07 µM) is 54% and 53%.
Same read-out and setting: the value for “RNA1{[moe](A)[sp].[moe](A)[sp].[moe](T)[sp].d(T)[sp].d(T)[sp].d(A)[sp].d(T)[sp].d(G)[sp].d(C)[sp].d(C)[sp].d(T)[sp].d(A)[sp].d(C)[sp].[cEt](A)[sp].[cEt](G)[sp].[cEt](C)}$$$$V2.0” was 47% and 36%; that for “RNA1{[moe](G)[sp].[cEt](A)[sp].[cEt](A)[sp].d(C)[sp].d(A)[sp].d(A)[sp].d(A)[sp].d(T)[sp].d(G)[sp].d(G)[sp].d(C)[sp].d(A)[sp].d(C)[sp].[cEt](T)[sp].[cEt](A)[sp].[moe](G)}$$$$V2.0” was 72% and 61%; that for “RNA1{[moe](T)[sp].[moe](G)[sp].d(A)[sp].d(A)[sp].d(G)[sp].d(C)[sp].d(G)[sp].d(A)[sp].d(A)[sp].d(G)[sp].d(T)[sp].[moe](G)[sp].[moe](C)[sp].[moe](A)[sp].[moe](C)[sp].[moe](A)[sp].[moe](C)}$$$$V2.0” was 81% and 79%.
On to “RNA1{[moe](C)[sp].[cEt](C)[sp].[cEt](A)[sp].d(A)[sp].d(G)[sp].d(G)[sp].d(C)[sp].d(A)[sp].d(C)[sp].d(A)[sp].d(G)[sp].d(C)[sp].d(T)[sp].[cEt](T)[sp].[cEt](G)[sp].[moe](G)}$$$$V2.0”, for which the target mRNA inhibition (HepG2, 0.07 µM) was 1% and 0%.
Same read-out and setting: the value for “RNA1{[moe](T)[sp].[cEt](G)[sp].[cEt](A)[sp].d(G)[sp].d(G)[sp].d(C)[sp].d(A)[sp].d(T)[sp].d(A)[sp].d(G)[sp].d(C)[sp].d(A)[sp].d(G)[sp].[cEt](C)[sp].[cEt](A)[sp].[moe](G)}$$$$V2.0” was 68% and 61%; that for “RNA1{[moe](T)[sp].[moe](G)[sp].[moe](A)[sp].d(G)[sp].d(G)[sp].d(C)[sp].d(A)[sp].d(T)[sp].d(A)[sp].d(G)[sp].d(C)[sp].d(A)[sp].[moe](G)[sp].[moe](C)[sp].[moe](A)[sp].[moe](G)[sp].[moe](G)}$$$$V2.0” was 70% and 56%.
As to “RNA1{[moe](G)[sp].[moe](G)[sp].[moe](T)[sp].[moe](G)[sp].d(A)[sp].d(A)[sp].d(G)[sp].d(C)[sp].d(G)[sp].d(A)[sp].d(A)[sp].d(G)[sp].d(T)[sp].[moe](G)[sp].[moe](C)[sp].[moe](A)[sp].[moe](C)}$$$$V2.0”, the target mRNA inhibition (HepG2, 0.07 µM) was 63% and 59%.
On the same count and under the same terms, the value for “RNA1{[moe](A)[sp].[cEt](A)[sp].[cEt](C)[sp].d(T)[sp].d(G)[sp].d(G)[sp].d(A)[sp].d(G)[sp].d(C)[sp].d(C)[sp].d(A)[sp].d(C)[sp].d(C)[sp].[cEt](A)[sp].[cEt](G)[sp].[moe](C)}$$$$V2.0” was 67% and 68%.
The same measure, in the same setting: the same measure for “RNA1{[moe](T)[sp].[moe](C)[sp].[moe](C)[sp].d(A)[sp].d(C)[sp].d(C)[sp].d(A)[sp].d(C)[sp].d(G)[sp].d(A)[sp].d(G)[sp].d(T)[sp].d(C)[sp].[cEt](T)[sp].[cEt](A)[sp].[cEt](G)}$$$$V2.0”: 42% and 67%.
As for “RNA1{[moe](A)[sp].[cEt](G)[sp].d(G)[sp].d(A)[sp].d(G)[sp].d(T)[sp].d(T)[sp].d(C)[sp].d(C)[sp].d(G)[sp].d(C)[sp].d(A)[sp].[cEt](G)[sp].[moe](T)[sp].[cEt](A)[sp].[moe](T)}$$$$V2.0”, the target mRNA inhibition is, setting by setting: (HepG2, 0.0092593 µM) 12%; (HepG2, 0.0277778 µM) 40%; (HepG2, 0.07 µM) 74% and 87%; (HepG2, 0.0833333 µM) 62%; (HepG2, 0.25 µM) 82%.
As for “RNA1{[moe](C)[sp].[moe](T)[sp].[moe](A)[sp].d(G)[sp].d(T)[sp].d(A)[sp].d(A)[sp].d(A)[sp].d(C)[sp].d(T)[sp].d(G)[sp].d(A)[sp].d(G)[sp].[cEt](C)[sp].[cEt](C)[sp].[cEt](A)}$$$$V2.0”, for the setting “HepG2, 0.07 µM”, the target mRNA inhibition was 71% and 79%.
Still for that read-out and setting: the value for “RNA1{[moe](G)[sp].[cEt](G)[sp].[cEt](C)[sp].d(A)[sp].d(T)[sp].d(A)[sp].d(G)[sp].d(C)[sp].d(A)[sp].d(G)[sp].d(C)[sp].d(A)[sp].d(G)[sp].[cEt](G)[sp].[cEt](A)[sp].[moe](T)}$$$$V2.0” was 75% and 64%.
Regarding “RNA1{[moe](G)[sp].[cEt](C)[sp].d(A)[sp].d(G)[sp].d(T)[sp].d(A)[sp].d(T)[sp].d(G)[sp].d(G)[sp].d(A)[sp].d(T)[sp].d(C)[sp].[cEt](G)[sp].[moe](G)[sp].[cEt](C)[sp].[moe](A)}$$$$V2.0”, the target mRNA inhibition (HepG2, 0.0092593 µM) is 25%; the target mRNA inhibition (HepG2, 0.0277778 µM) worked out at 44%; the target mRNA inhibition (HepG2, 0.07 µM) is 83% and 90%; the target mRNA inhibition (HepG2, 0.0833333 µM) was 77%; the target mRNA inhibition (HepG2, 0.25 µM) was determined as 89%.
